Test results from the supplement of paper PMC8671470.

How the values were obtained:
Settings in all cases: 72 h
NOMO-1 [1] = assay: cell viability (% survival relative to DMSO control, bortezomib = 0%); higher = less cytotoxic
Summary of the method: (§1)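 Seeding density for each of the 10 AML and 5 CML cell lines was titrated to the linear growth range. Cells went into 384-well plates pre-printed in duplicate with compounds at 1, 10, 100, 1000 or 10000 nM and were held for 72 h at 37 °C with 5% CO2. CellTiter-Glo luminescence then provided the readout. Percent survival is expressed relative to vehicle at 100% and a 10 µM positive control at 0%, averaged over duplicates.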

KG-1 [2] = assay: as above
Summary of the method: as §1

HEL [3] = assay: as above
Summary of the method: as §1

BV-173 [4] = assay: as above
Summary of the method: as §1

THP-1 [5] = assay: as above
Summary of the method: as §1

ML-2 [6] = assay: as above
Summary of the method: as §1

KU-812 = system: KU-812
Summary of the method: (§2)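 Fifteen myeloid leukaemia lines were incubated for 72 h at 37 °C with 5% CO2 across five tenfold doses from 1 to 10,000 nM, in duplicate. ATP luminescence was normalised to vehicle and to a positive control at 10 µM and fitted with a four-parameter log-logistic model. The IC50 came from these dose–response fits.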

SHI-1 = system: SHI-1
Summary of the method: as §2

KCL-22 = system: KCL-22
Summary of the method: as §2

LAMA-84 = system: LAMA-84
Summary of the method: as §2

Mono-Mac-6 = system: Mono-Mac-6
Summary of the method: as §2

HL-60 = system: HL-60
Summary of the method: as §2

MV4-11 = system: MV4-11
Summary of the method: as §2

K-562 = system: K-562
Summary of the method: as §2

MOLM-13 = system: MOLM-13
Summary of the method: as §2

NOMO-1 [7] = system: NOMO-1
Summary of the method: as §2

KG-1 [8] = system: KG-1
Summary of the method: as §2

HEL [9] = system: HEL
Summary of the method: as §2

BV-173 [10] = system: BV-173
Summary of the method: as §2

THP-1 [11] = system: THP-1
Summary of the method: as §2

ML-2 [12] = system: ML-2
Summary of the method: as §2

Cc1ccc(-c2cc(C(F)(F)F)nn2-c2ccc(S(N)(=O)=O)cc2)cc1 [Celecoxib]
cell viability [%]
Settings	BV-173 [4]	HEL [3]	KG-1 [2]	ML-2 [6]	NOMO-1 [1]	THP-1 [5]
1 nM	104	96.1	96.8	93.5	101	105
10 nM	93.2	104	102	99.2	109	102
100 nM	86.4	89.9	97.4	105	94.8	105
1000 nM	84.9	99.5	110	87.4	99.4	95.5
10000 nM	83.2	97.1	93.8	76.8	95.5	84.7

Settings	IC50 (cell viability) [µM]
BV-173 [10]	> 10
HEL [9]	> 10
HL-60	> 10
K-562	> 10
KCL-22	> 10
KG-1 [8]	> 10
KU-812	> 10
LAMA-84	> 10
ML-2 [12]	> 10
MOLM-13	> 10
MV4-11	> 10
Mono-Mac-6	> 10
NOMO-1 [7]	> 10
SHI-1	> 10
THP-1 [11]	> 10
